Reference: patent US20060252807A1, “Novel ortho-terphenyl inhibitors of p38 kinase and methods of treating inflammatory disorders” (Kalypsys, Inc., priority 2005, published 2006)
pIC50: −log10 of the molar value.

target: T1, active p38 alpha enzyme (Upstate Biotechnology) (Homo sapiens, UniProt Q16539); assay: p38α biochemical assay (ATP turnover, luminescent detection, Cambrex PKlight); conditions: p38α biochemical assay, Table 1 Biological Activity
T1 construct: purchased Upstate Biotechnology
Outline: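 Active human p38α was incubated with full-length MapkapK2 protein as substrate and 1.4 uM ATP (final) for 2 hours at 30C. Buffer: 200 mM Tris, 100 mM MgCl2, 1.5 mM EGTA, 4 mM CaCl2, 20 mM MOPS, 1 mM EDTA, 1% glycerol, 0.1% β-mercaptoethanol, 1 mg/ml BSA. Total ATP turnover read by luminescence.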

T1 sequence (Q16539 whole entry): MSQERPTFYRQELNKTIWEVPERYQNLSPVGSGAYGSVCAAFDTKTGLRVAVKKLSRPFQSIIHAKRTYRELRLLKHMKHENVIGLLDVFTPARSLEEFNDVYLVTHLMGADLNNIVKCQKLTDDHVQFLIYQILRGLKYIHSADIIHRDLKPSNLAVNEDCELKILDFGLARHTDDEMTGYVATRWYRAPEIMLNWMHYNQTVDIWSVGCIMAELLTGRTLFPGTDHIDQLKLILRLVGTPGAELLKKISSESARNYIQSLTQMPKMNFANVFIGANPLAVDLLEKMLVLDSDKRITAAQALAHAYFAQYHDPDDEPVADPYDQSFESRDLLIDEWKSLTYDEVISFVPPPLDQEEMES

SMILES	pIC50
COc1ccccc1/C=C/C(=O)NCc1nc(-c2ccc(F)cc2)c(-c2nc(C(=O)NC(C)C)cs2)o1 [Example 205]	< 6.00
CC(C)NC(=O)c1csc(-c2oc(CN3CCN(C(=O)c4cccc(F)c4)CC3)nc2-c2ccc(F)cc2)n1 [Example 364]	< 6.00
CC(C)NC(=O)c1csc(-c2c(-c3ccc(F)cc3)noc2CNC(=O)c2ccc3c(c2)OCO3)n1 [Example 652]	< 6.00
CC(=O)NCc1onc(-c2ccc(F)cc2)c1-c1nc(C(=O)NC(C)C)cs1 [Example 573]	< 6.00
Cc1cccc(C(=O)NCc2onc(-c3ccc(F)cc3)c2-c2nc(C(=O)NC(C)C)cs2)c1C [Example 611]	< 6.00
CCOC(=O)CC(=O)NCc1nc(-c2ccc(F)cc2)c(-c2nc(C(=O)NC(C)C)cs2)o1 [Example 120]	≥ 6.00
COc1cc(/C=C/C(=O)NCc2nc(-c3ccc(F)cc3)c(-c3nc(C(=O)NC(C)C)cs3)o2)ccc1O [Example 261]	≥ 6.00
CC(C)NC(=O)c1csc(-c2oc(CN3CCN(C(=O)c4cc(Cl)ccc4O)CC3)nc2-c2ccc(F)cc2)n1 [Example 433]	≥ 6.00
CC(C)NC(=O)c1csc(-c2oc(CNC(=O)c3cccc(Br)n3)nc2-c2ccc(F)cc2)n1 [Example 276]	< 6.00
COc1cc(C(=O)N2CCN(Cc3nc(-c4ccc(F)cc4)c(-c4nc(C(=O)NC(C)C)cs4)o3)CC2)cc(Cl)n1 [Example 478]	< 6.00
COc1ccc(OC)c(C(=O)N2CCN(Cc3nc(-c4ccc(F)cc4)c(-c4nc(C(=O)NC(C)C)cs4)o3)CC2)c1 [Example 461]	< 6.00
CC(C)NC(=O)c1csc(-c2c(-c3ccc(F)cc3)noc2CNC(=O)C(C)c2ccc(O)cc2)n1 (stereo not drawn) [Example 658]	< 6.00
CCCCc1ccc(C(=O)N2CCN(Cc3nc(-c4ccc(F)cc4)c(-c4nc(C(=O)NC(C)C)cs4)o3)CC2)cc1 [Example 445]	< 6.00
CC(C)NC(=O)c1csc(-c2oc(CN3CCN(C(=O)c4cccnc4)CC3)nc2-c2ccc(F)cc2)n1 [Example 349]	< 6.00
COc1cccc(C(=O)N2CCN(Cc3nc(-c4ccc(F)cc4)c(-c4nc(C(=O)NC(C)C)cs4)o3)CC2)c1OC [Example 465]	< 6.00
CC(C)NC(=O)c1csc(-c2oc(CN3CCN(C(=O)Cc4ccc(O)c(F)c4)CC3)nc2-c2ccc(F)cc2)n1 [Example 428]	≥ 6.00
CC(C)NC(=O)c1csc(-c2c(-c3ccc(F)cc3)noc2CNC(=O)c2ccc(F)c(F)c2)n1 [Example 636]	< 6.00
CC(C)NC(=O)c1csc(-c2oc(CN3CCN(C(=O)c4cc5ccccc5s4)CC3)nc2-c2ccc(F)cc2)n1 [Example 444]	< 6.00
CC(C)NC(=O)c1csc(-c2c(-c3ccc(F)cc3)noc2CNC(=O)c2cc([N+](=O)[O-])ccc2F)n1 [Example 710]	< 6.00
CCc1ccc(C(=O)NCc2onc(-c3ccc(F)cc3)c2-c2nc(C(=O)NC(C)C)cs2)cc1 [Example 615]	< 6.00
Cc1cc(C(=O)NCc2onc(-c3ccc(F)cc3)c2-c2nc(C(=O)NC(C)C)cs2)n[nH]1 [Example 591]	< 6.00
Cc1c(C(=O)NCc2onc(-c3ccc(F)cc3)c2-c2nc(C(=O)NC(C)C)cs2)oc2ccccc12 [Example 677]	< 6.00
CC(C)NC(=O)c1csc(-c2oc(CN3CCN(C(=O)c4ccccc4Oc4ccccc4)CC3)nc2-c2ccc(F)cc2)n1 [Example 526]	< 6.00
CC(C)NC(=O)c1csc(-c2c(-c3ccc(F)cc3)noc2CNC(=O)C(C)(C)C)n1 [Example 578]	< 6.00
CC(C)NC(=O)c1csc(-c2c(-c3ccc(F)cc3)noc2CNC(=O)c2ccccc2Cl)n1 [Example 626]	< 6.00
CC(C)NC(=O)c1csc(-c2oc(CNC(=O)c3ccccc3-c3ccccc3)nc2-c2ccc(F)cc2)n1 [Example 267]	< 6.00
COc1cc(C(=O)NCc2nc(-c3ccc(F)cc3)c(-c3nc(C(=O)NC(C)C)cs3)o2)c([N+](=O)[O-])cc1OC [Example 307]	≥ 6.00

same assay, conditions: p38α kinase; Table 1 Biological Activity

SMILES	pIC50
Cc1nc(-c2ccc(F)cc2)c(-c2nc(C(=O)N3CCN(C(=O)OC(C)(C)C)C[C@H]3CO)cs2)s1 [Example 1943]	< 6.00
O=C(NCCN1CCCCC1)c1csc(-c2c(-c3ccc(F)cc3)n[nH]c2C2CCNCC2)n1 [Example 2085]	< 6.00
CCN(CC)CCCC(C)NCc1onc(-c2ccc(F)cc2)c1-c1nc(C(=O)NC(C)C)cs1 (stereo not drawn) [Example 1482]	< 6.00
O=C(NCCc1cccc(Cl)c1)c1csc(-c2c(-c3ccc(F)cc3)n[nH]c2C2CCNCC2)n1 [Example 2128]	< 6.00
Cc1nc(-c2ccc(F)cc2)c(-c2nc(C(=O)NC(C)CCc3ccccc3)cs2)s1 (stereo not drawn) [Example 1794]	< 6.00
Cc1nc(-c2ccc(F)cc2)c(-c2nc(C(=O)Nc3ccccc3C(=O)c3ccccc3)cs2)s1 [Example 2018]	< 6.00
CC(C)NC(=O)c1csc(-c2oc(CNc3ccc4c(c3)CCC4)nc2-c2ccc(F)cc2)n1 [Example 1333]	< 6.00
CC(C)NC(=O)c1csc(-c2c(-c3ccc(F)cc3)noc2CN2CCCCC2CO)n1 (stereo not drawn) [Example 1539]	< 6.00
COc1ccc(NC(=O)c2csc(-c3sc(C)nc3-c3ccc(F)cc3)n2)cc1OC [Example 1702]	≥ 6.00
CC(C)NC(=O)c1csc(-c2oc(CN3CCN(c4ccc(Cl)cc4)CC3)nc2-c2ccc(F)cc2)n1 [Example 1274]	< 6.00
CC(C)NC(=O)c1csc(-c2c(-c3ccc(F)cc3)n[nH]c2C2CCN(C(=O)c3cscn3)CC2)n1 [Example 833]	≥ 6.00
CC1CCC(NC(=O)c2csc(-c3c(-c4ccc(F)cc4)n[nH]c3C3CCNCC3)n2)CC1 (stereo not drawn) [Example 2066]	< 6.00
Cc1nc(-c2ccc(F)cc2)c(-c2nc(C(=O)N3CC(C)CC(C)C3)cs2)s1 (stereo not drawn) [Example 1856]	< 6.00
CCN(CC)CCCC(C)NC(=O)c1csc(-c2sc(C)nc2-c2ccc(F)cc2)n1 (stereo not drawn) [Example 1806]	< 6.00
CC(C)NC(=O)c1csc(-c2c(-c3ccc(F)cc3)noc2CN2CCN(c3ccc(C(C)(C)C)cc3)CC2)n1 [Example 1619]	< 6.00
Cc1ccc(C)c(NCc2onc(-c3ccc(F)cc3)c2-c2nc(C(=O)NC(C)C)cs2)c1 [Example 1640]	< 6.00
Cc1cnc(CNCc2nc(-c3ccc(F)cc3)c(-c3nc(C(=O)NC(C)C)cs3)o2)cn1 [Example 1102]	< 6.00
Cc1nc(-c2ccc(F)cc2)c(-c2nc(C(=O)NCc3cccc(Cl)c3)cs2)s1 [Example 1785]	≥ 6.00
CC(C)NC(=O)c1csc(-c2c(-c3ccc(F)cc3)n[nH]c2C2CCN(C(=O)CCc3ccccc3Br)CC2)n1 [Example 1023]	< 6.00
CC(C)NC(=O)c1csc(-c2c(-c3ccc(F)cc3)noc2CNC(=O)c2ccccc2C(=O)c2ccc(F)cc2)n1 [Example 798]	< 6.00

SMILES	pIC50
COCCOCn1nc(-c2ccc(F)cc2)c(-c2nc(C=NOC)cs2)c1C (single isomer, unassigned) [Example 2187, 2-|3-(4-Fluoro-phenyl)-1-(2-methoxy-ethoxymethyl)-5-methyl-1H-pyrazol-4-yl|-thiazole-4-carbaldehyde O-methyl-oxime]	< 6.00
Cc1nc(-c2ccc(F)cc2)c(-c2nc(C(=O)NCCC(C)(C)C)cs2)s1 [Example 1734]	< 6.00
CC(C)CC(NC(=O)OC(C)(C)C)C(=O)N1CCC(c2[nH]nc(-c3ccc(F)cc3)c2-c2nc(C(=O)NC(C)C)cs2)CC1 (stereo not drawn) [Example 1043]	≥ 6.00
CC(C)CNCc1onc(-c2ccc(F)cc2)c1-c1nc(C(=O)NC(C)C)cs1 [Example 1394]	< 6.00
COc1ccc(CNC(=O)c2csc(-c3sc(C)nc3-c3ccc(F)cc3)n2)cc1OC [Example 1814]	≥ 6.00
CC(C)c1ccc(CNC(=O)c2csc(-c3c(-c4ccc(F)cc4)n[nH]c3C3CCNCC3)n2)cc1 [Example 2118]	< 6.00
CCN(CC)CCNC(=O)c1csc(-c2sc(C)nc2-c2ccc(F)cc2)n1 [Example 1750]	≥ 6.00
COc1cc(C(=O)N2CCC(c3[nH]nc(-c4ccc(F)cc4)c3-c3nc(C(=O)NC(C)C)cs3)CC2)c([N+](=O)[O-])cc1OC [Example 1021]	< 6.00
Cc1nc(-c2ccc(F)cc2)c(-c2nc(C(=O)N3CCN(CCN4CCOCC4)CC3)cs2)s1 [Example 1929]	< 6.00
CC(C)NC(=O)c1csc(-c2c(-c3ccc(F)cc3)n[nH]c2C2CCN(C(=O)c3csc4ccccc34)CC2)n1 [Example 920]	< 6.00
Cc1nc(-c2ccc(F)cc2)c(-c2nc(C(=O)NCc3ccc(Cl)cc3Cl)cs2)s1 [Example 1821]	≥ 6.00
CC(C)NC(=O)c1csc(-c2c(-c3ccc(F)cc3)n[nH]c2C2CCN(C(=O)c3ccccc3)CC2)n1 [Example 2170, 2-|5-(1-Benzoyl-piperidin-4-yl)-3-(4-fluoro-phenyl)-1H-pyrazol-4-yl|-thiazole-4-carboxylic acid isopropylamide]	< 6.00
CC(C)NC(=O)c1csc(-c2c(-c3ccc(F)cc3)n[nH]c2C2CCN(C(=O)c3cccnc3)CC2)n1 [Example 2179, 2-{3-(4-Fluoro-phenyl)-5-|1-(pyridine-3-carbonyl)-piperidin-4-yl|-1H-pyrazol-4-yl}-thiazole-4-carboxylic acid isopropylamide]	≥ 6.00
COc1ccc(CNCc2nc(-c3ccc(F)cc3)c(-c3nc(C(=O)NC(C)C)cs3)o2)cc1 [Example 1125]	< 6.00
COc1ccc(CNCc2onc(-c3ccc(F)cc3)c2-c2nc(C(=O)NC(C)C)cs2)cc1OC [Example 1490]	< 6.00
CC(C)NC(=O)c1csc(-c2c(-c3ccc(F)cc3)noc2CN2CCN(CCc3ccccc3)CC2)n1 [Example 1591]	< 6.00
Cc1nc(-c2ccc(F)cc2)c(-c2nc(C(=O)N3CCCCC3C)cs2)s1 (stereo not drawn) [Example 1847]	< 6.00
Cc1nc(-c2ccc(F)cc2)c(-c2nc(C(=O)Nc3c(C)cccc3C(C)C)cs2)s1 [Example 1998]	< 6.00
CC(C)NC(=O)c1csc(-c2c(-c3ccc(F)cc3)n[nH]c2C2CCN(C(=O)c3cc(F)c(Cl)cc3F)CC2)n1 [Example 973]	< 6.00
